What was measured:
[1] = test system: foot tapping in gerbils induced by central injection of an NK1 agonist; assay: Gerbil foot-tapping induced by central infusion of NK-1 receptor agonist GR73632; assay type: in vivo, Mongolian gerbils; conditions: i.v.
Source text: ASSAY 2: Gerbil Foot-tapping
CNS-penetrant NK-1 receptor antagonists for use in the present invention can be identified by their ability to inhibit foot tapping in gerbils induced by anxiogenic agents (such as pentagastrin) or central infusion of NK-1 receptor agonists such as GR73632, or caused by aversive stimulation such as foot shock or single housing, based on the method of Rupniak & Williams, Eur. J. Pharmacol., 1994, 265, 179.
Male or female Mongolian gerbils (35-70 g) are anaesthetised by inhalation of an isoflurane/oxygen mixture to permit exposure of the jugular vein in order to permit administration of test compounds or vehicle in an injection volume of 5 ml/kg i.v. Alternatively, test compounds may be administered orally or by subcutaneous or intraperitoneal routes. A skin incision is then made in the midline of the scalp to expose the skull. […]

[2] = test system: separation-induced vocalisations by guinea-pig pups; assay: Separation-induced vocalisation in guinea-pig pups; assay type: in vivo; conditions: p.o.
Protocol: ASSAY 4: Separation-induced Vocalisation
On test days each pup receives an oral dose or an s.c. or i.p. injection of test compound or vehicle and is then immediately returned to the home cage with its mother and siblings for 30 to 60 minutes (or for up to 4 hours following an oral dose, dependent upon the oral pharmacokinetics of the test compound) before social isolation for 15 minutes as described above. […] Between 6 and 8 animals receive each test compound at each dose tested.

human NK-1 receptor = target: T1, human NK-1 receptor (Homo sapiens, UniProt P25103); assay: NK-1 receptor binding (125I-Tyr8-substance P, intact CHO cells); conditions: CHO cells expressing the human NK-1 receptor
T1 construct: expressed in transfected cells; host or cells: CHO (Chinese hamster ovary) cells, intact
T1 sequence (P25103 whole entry): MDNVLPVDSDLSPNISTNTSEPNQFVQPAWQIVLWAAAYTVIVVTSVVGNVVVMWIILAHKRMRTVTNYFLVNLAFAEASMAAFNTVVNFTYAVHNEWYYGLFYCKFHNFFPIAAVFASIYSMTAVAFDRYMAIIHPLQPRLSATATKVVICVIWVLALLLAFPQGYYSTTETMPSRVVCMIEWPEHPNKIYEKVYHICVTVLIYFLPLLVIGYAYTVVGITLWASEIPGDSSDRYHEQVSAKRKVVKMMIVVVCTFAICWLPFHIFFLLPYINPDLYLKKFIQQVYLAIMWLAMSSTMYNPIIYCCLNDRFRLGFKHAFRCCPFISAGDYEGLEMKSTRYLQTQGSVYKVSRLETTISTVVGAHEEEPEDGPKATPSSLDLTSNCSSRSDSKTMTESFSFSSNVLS
Protocol: NK-1 receptor binding assays are performed in intact Chinese hamster ovary (CHO) cells expressing the human NK-1 receptor using a modification of the assay conditions described by Cascieri et al, J. Pharmacol. Exp. Ther., 1992, 42, 458. Typically, the receptor is expressed at a level of 3×10^5 receptors per cell. Cells are grown in monolayer culture, detached from the plate with enzyme-free dissociation solution (Speciality Media Inc.), and washed prior to use in the assay. ^125I-Tyr^8-substance P (0.1 nM, 2000 Ci/mmol; New England Nuclear) is incubated in the presence or absence of test compounds (dissolved in 5 μl dimethylsulphoxide, DMSO) with 5×10^4 CHO cells. Ligand binding is performed in 0.25 ml of 50 mM Tris-HCl, pH 7.5, containing 5 mM MnCl2, 150 mM NaCl, 0.02% bovine serum albumin (Sigma), 50 μg/ml chymostatin (Peninsula), 0.1 nM phenylmethylsulphonyl fluoride, 2 μg/ml pepstatin, 2 μg/ml leupeptin and 2.8 μg/ml furoyl saccharine. The incubation proceeds at room temperature until equilibrium is achieved (>40 minutes) and the receptor-ligand complex is harvested by filtration over GF/C filters pre-soaked in 0.1% polyethylenimine using a Tomtek 96-well harvester. Non-specific binding is determined using excess substance P (1 μM and represents <10% of total binding.

SMILES | gerbil foot-tapping (5 mins.): ID50 ([1]; 5 mins.) | gerbil foot-tapping (24 hrs.): ID60 ([1]; 24 hrs. prior to agonist challenge) | guinea-pig vocalisation (4 hr. pre-treatment): ID50 [2] | IC50 (human NK-1 receptor) | melting point
OC[C@@H](O[C@H]1OCCN(Cc2nc[nH]n2)[C@H]1c1ccc(F)cc1)c1cc(C(F)(F)F)cc(C(F)(F)F)c1 [2-(R)-(1-(S)-(3,5-bis(trifluoromethyl)phenyl)-2-hydroxyethoxy)-3-(S)-(4-fluorophenyl)-4-(1,2,4-triazol-3-yl)methylmorpholine] | ID50 = 0.38 mg/kg i.v. | ID60 = 2.2 mg/kg i.v. | ID50 = 0.91 mg/kg p.o. | 0.12 nM | 
Cl.FC(F)(F)Oc1ccc(OC2CC2)c([C@H]2CO[C@]3(CCCN[C@H]3c3ccccc3)C2)c1 |  |  |  |  | 214 to 216 °C
